Consider five compounds from PMC7034072, “Discovery of small molecule inhibitors of Leishmania braziliensis Hsp90 chaperone” (Journal of Enzyme Inhibition and Medicinal Chemistry, 2020).

The target of assay [1] is LbHsp90N. More on the design: method as in PMID 22910377. Conditions: measured by Tryptophan fluorescence quenching ref 31; read-out: KDapp LbHsp90N; cited from earlier work.
Assay [2] concerns promastigote form of L. braziliensis. As to the kind of experiment: Cell viability assay (MTT/PMS), single concentration. The assay is classed as cell-based. Conditions: L. braziliensis promastigotes, 200 μM/well; for Cell viability: 72 h, MTT/PMS, Yes = leishmanicidal activity; for reduced cell viability: after 72 h. Here is the method: The leishmanicidal activity of the compounds was tested in vitro against the promastigote form of L. braziliensis applying 200 μM/well, (with a total of 0.5% DMSO) into 90 μL of culture. The concentration of L. braziliensis (MHOM/BR/1973/M2269) was adjusted to 10^7 cells/mL. Amphotericin (100 μM/well) was used as positive control, and 0.5% DMSO as negative control.
The plates were incubated at room temperature (RT) for 72 h. After this period, the viability of the promastigotes was verified via MTT (3–(4, 5-Dimethylthiazol-2-yl)-2, 5-Diphenyltetrazolium Bromide) colorimetric assay. MTT/PMS 11.1 μL/well solution (MTT = 5 mg/mL; Phenazine methosulfate-PMS = 0.22 mg/mL) was added, and the plate was incubated at RT for 4 h, at 150 RPM, protected from light. Formazan crystals were then solubilised by adding 100 μL/well of a solubilisation solution containing 7% SDS, 10 mM HCl and 30% DMSO. The mixture was incubated at RT for 90 min at 150 RPM protected from light. Wells containing the medium and the compounds or DMSO without MTT were used as blank controls. The absorbance was quantified in a plate reader (Biotek Synergy HT) at 570 nm.
The cell viability percentages were calculated by the following equation: (1) Cell viability %= AT−AB/AU−AB ×100 where AT was an averaged absorbance from treated samples, AB blank absorbance and AU was an averaged absorbance from negative control.

Assay [3] concerns L. amazonensis. More on the design: method as in PMID 31611575. The conditions noted are these: determined against L. amazonensis ref 36; read-out: IC50 (L. braziliensis column); cited from earlier work.
Assay [4] addresses T1, LbHsp90 (Leishmania braziliensis, UniProt A4HL70). As to the kind of experiment: ATPase activity inhibition assay (EnzChek Pi quantification). The assay is classed as biochemical. Here is the method:
(§1) The ATPase activity of LbHsp90 and hHsp90β was evaluated spectrophotometrically through inorganic phosphate (Pi) quantification following ATP hydrolysis, by the EnzChek™ assay kit (Invitrogen®) as previous described[31]^,[34]. Briefly, a 2 µM solution of LbHsp90 and hHsp90β enzymes was prepared in 150 mM NaCl, 5 mM MgCl2 and 20 mM Tris-HCl, pH 7.5, and incubated with ATP (concentration range 0–5 mM) for 60 min at 37 °C. Then, the chromogenic substrate 2-amino-6-mercapto 7-methyl purine riboside (MESG) and the purine nucleoside phosphorylase (PNP) were added and the resulting reaction mixture was incubated for 30 min at 37 °C. The assays were performed in a 96-well plate and kinetic parameters determined by Michaelis–Menten fitting using GraphPad Prism 6 software.
The inhibitory activity against LbHsp90 and hHsp90β of compounds showing interaction in DSF assays (namely Glb08, Glb15, Gl23, Glb25 and Glb27) was determined using spectrophotometric ATPase activity assays as described above. Initial screenings were performed using 50 μM compound concentration in a reaction mixture consisting of 2 μM enzyme and 2.5 mM ATP. After 1 h incubation at 37 °C, MESG and PNP were added. The amount of Pi was estimated after 30 min incubation at 37 °C. GA was used as reference compound, reporting 100% ATPase activity inhibition (at 50 μM). […] A compound concentration ranging from 1 to 75 μM was included in the reaction mixture and Pi quantification performed as previously described (measurements were performed in triplicate). IC50 values were determined by non-linear regression data fitting (using GraphPad Prism 6 software).

The test system of assay [5] is LbHsp90 and LbHsp90N recombinant proteins. As to the kind of experiment: Differential scanning fluorimetry (thermal shift assay). It counts as binding, L. braziliensis. Conditions: DSF; for Thermal shift: inclusion criterion Tm variation greater or equal to ± 2 °C in LbHsp90 or LbHsp90N, Yes/No. How it is done:
The interaction of Hsp90 proteins with different compounds was monitored through the melting temperature (Tm) of each protein in the presence of a fixed concentration of the target compound by differential scanning fluorimetry (DSF) also referred as thermal shift assay. A final concentration of 10 µM of dimeric LbHsp90 and 20 µM of monomeric LbHsp90N in 40 mM Hepes buffer (pH 7.5) containing 100 mM KCl were used. The DMSO concentration in each sample was fixed at 2.5% (v/v). Prior to the readings, the samples were incubated for 30 min on ice. The fluorophore Sypro Orange (Life Technologies) was used as fluorescent probe. The experiments were performed at a thermocycler CFX96 Touch Real Time PCR Detection System (BioRad) and the data were analysed using the CFX Manager software (BioRad). As positive controls, 100 µM of GA and Radicicol (RDC) were used.
In general terms: In DSF a fluorescence change marks the thermal transition of the protein.

For assay [6], the target named is T1, LbHsp90. More on the design: method as in PMID 22910377. Conditions: measured by Tryptophan fluorescence quenching ref 31; read-out: KDapp LbHsp90; cited from earlier work.
In assay [7] the target is T2, hHsp90β (Homo sapiens, UniProt P08238).
T2 construct: made in house; host or cells: Escherichia coli BL21(DE3)
T2 sequence (P08238 whole entry): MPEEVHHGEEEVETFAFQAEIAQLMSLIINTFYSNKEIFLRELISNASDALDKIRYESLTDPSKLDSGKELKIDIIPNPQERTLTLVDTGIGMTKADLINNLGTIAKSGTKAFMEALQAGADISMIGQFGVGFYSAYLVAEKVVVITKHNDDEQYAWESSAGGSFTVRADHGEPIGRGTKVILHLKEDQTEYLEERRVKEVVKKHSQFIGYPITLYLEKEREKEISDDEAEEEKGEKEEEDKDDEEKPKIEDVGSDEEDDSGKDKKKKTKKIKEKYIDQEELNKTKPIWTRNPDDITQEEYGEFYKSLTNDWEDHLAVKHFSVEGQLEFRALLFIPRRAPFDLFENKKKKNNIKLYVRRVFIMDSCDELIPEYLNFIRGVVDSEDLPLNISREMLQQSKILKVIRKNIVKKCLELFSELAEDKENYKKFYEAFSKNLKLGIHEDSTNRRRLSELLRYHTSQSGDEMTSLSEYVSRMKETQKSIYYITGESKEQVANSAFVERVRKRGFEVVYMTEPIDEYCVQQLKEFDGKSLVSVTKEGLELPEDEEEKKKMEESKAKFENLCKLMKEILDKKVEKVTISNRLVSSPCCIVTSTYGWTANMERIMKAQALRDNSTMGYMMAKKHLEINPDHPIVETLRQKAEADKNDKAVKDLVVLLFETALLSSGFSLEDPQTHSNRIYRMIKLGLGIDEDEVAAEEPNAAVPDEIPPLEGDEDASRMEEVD
As to the kind of experiment: ATPase activity inhibition assay (EnzChek Pi quantification). It counts as biochemical. The conditions noted are these: 50 μM compound, 2 μM enzyme, 2.5 mM ATP. Here is the method:
as §1
Initial screenings were performed using 50 μM compound concentration in a reaction mixture consisting of 2 μM enzyme and 2.5 mM ATP. After 1 h incubation at 37 °C, MESG and PNP were added. The amount of Pi was estimated after 30 min incubation at 37 °C. […] A compound concentration ranging from 1 to 75 μM was included in the reaction mixture and Pi quantification performed as previously described (measurements were performed in triplicate). IC50 values were determined by non-linear regression data fitting (using GraphPad Prism 6 software).

The target in assay [8] is LbHsp90N. As to the kind of experiment: Tryptophan fluorescence quenching interaction assay. The assay is classed as binding, L. braziliensis. The conditions noted are these: N-terminal domain, read-out: KDapp LbHsp90N. Here is the method: (§2) Two µM of protein in 40 mM Hepes buffer (pH 7.5), 100 mM KCl, was incubated for 30 min on ice with increasing concentrations of the compounds diluted in DMSO. […] The samples were excited at 280 nm and the emission was collected in the 300–400 nm range, in a 1.0 × 0.2 cm optical path cuvette, on an F-4500 Fluorescence Spectrophotometer (Hitachi). The fluorescence quenching was analysed at the maximum emission wavelength in the absence of ligand. The determination of the apparent dissociation constant (KDapp) was performed by fitting the fluorescence values obtained for each compound concentration according to a dose-response model through the Equation (3): (3) y = Fmin + (Fmax−Fmin)/(1+10^(logKD− [ligand])) where Fmin and Fmax are the minimum and maximum fluorescence intensity and [ligand] is the compound concentration used in the assay, according to the GraphPad Prism 5 software. The fluorescence intensities were corrected by inner filter effects as previously described.

The subject of assay [9] is Balb-c 3T3 clone A31 mouse fibroblasts. Briefly: Cytotoxic assay (MTT). It counts as cell-based. The conditions noted are these: Balb-c 3T3 mouse fibroblasts, 72 h, 37 °C. Here is the method:
Compounds cytotoxicity was evaluated in 100 μL of Balb-c 3T3 cone A31 mouse fibroblasts (10^5 cells/mL) into a 96-well plate, incubated for 24 h at 37 °C to become adhered. After this period, the medium was washed and 100 μL of each compound was added to the culture medium (concentration ranging from 1 to 200 μM/well, with a total of 0.5% DMSO) in quadruplicate. Rapamycin was used as a positive control, and 0.5% DMSO was used as negative control. The plates were incubated for 72 h at 37 °C. After this, the viability of Balb-c 3T3 cells was evaluated by MTT colorimetric assay, as described previously.

Assay [10] deals with promastigote forms of L. braziliensis. Briefly: In vitro IC50 determination (leishmanicidal activity, MTT/PMS). The assay is classed as cell-based. The conditions noted are these: promastigotes, 72 h, RT. Here is the method: Amphotericin 100 μM/well and 0.5% DMSO were used as positive and negative control, respectively. The plates were incubated at RT for 72 h. After this, the viability of the promastigotes was verified by MTT/PMS colorimetric assay, as described above. In vitro leishmanicidal activity, expressed as IC50, was determined using GraphPad Prism 5 software according to the following equation: (2) y= Amin + Amax−Amin/1+10^logIC50 −x*Hillslope where Amin and Amax are, respectively, the minimum and maximum activities obtained, x is the ligand concentration and Hill Slope is the parameter that describes the steepness of the curve.
The selectivity index parameter was obtained by the ratio of compound IC50 against mammalian cells and compound IC50 against promastigote cells.

Assay [11] deals with T1, LbHsp90. As to the kind of experiment: Tryptophan fluorescence quenching interaction assay. Conditions: full-length, tryptophan fluorescence quenching; read-out: KDapp LbHsp90. The assay is classed as binding. Here is the method:
as §2

Assay [12] concerns the target T3, hHsp90βN (Homo sapiens, UniProt P08238).
T3 construct: N-terminal domain construct (Hsp90βN – residues 1–223); His-tag (cleaved yes); made in house; host or cells: Escherichia coli BL21(DE3)
The assay is described as above. The assay is classed as binding. The conditions noted are these: N-terminal domain, read-out: KDapp hHsp90βN. Here is the method:
as §2

The target of assay [13] is T2, hHsp90β. The description is as above. It counts as binding. The conditions noted are these: full-length, tryptophan fluorescence quenching; read-out: KDapp hHsp90β. How it is done: as §2
Where [14] appears, read: compound 1 to 75 μM, triplicate, read-out: IC50 LbHsp90 ATPase activity inhibition.

As a reminder, the IC50 is the midpoint of a concentration-inhibition curve. In general, inhibition refers to the percentage by which the read-out fell short of the control. As a reminder, the ΔTm is the change in melting temperature against a reference sample.

Where two headings read alike, the source gives them in different places.

T3 sequence (P08238 1-223): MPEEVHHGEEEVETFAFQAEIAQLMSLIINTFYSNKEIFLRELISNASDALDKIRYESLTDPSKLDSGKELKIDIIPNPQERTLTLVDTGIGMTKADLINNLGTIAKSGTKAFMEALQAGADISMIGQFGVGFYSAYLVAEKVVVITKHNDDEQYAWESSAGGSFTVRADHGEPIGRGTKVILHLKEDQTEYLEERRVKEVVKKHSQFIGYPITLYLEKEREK
T1 sequence (A4HL70 entry or part of it): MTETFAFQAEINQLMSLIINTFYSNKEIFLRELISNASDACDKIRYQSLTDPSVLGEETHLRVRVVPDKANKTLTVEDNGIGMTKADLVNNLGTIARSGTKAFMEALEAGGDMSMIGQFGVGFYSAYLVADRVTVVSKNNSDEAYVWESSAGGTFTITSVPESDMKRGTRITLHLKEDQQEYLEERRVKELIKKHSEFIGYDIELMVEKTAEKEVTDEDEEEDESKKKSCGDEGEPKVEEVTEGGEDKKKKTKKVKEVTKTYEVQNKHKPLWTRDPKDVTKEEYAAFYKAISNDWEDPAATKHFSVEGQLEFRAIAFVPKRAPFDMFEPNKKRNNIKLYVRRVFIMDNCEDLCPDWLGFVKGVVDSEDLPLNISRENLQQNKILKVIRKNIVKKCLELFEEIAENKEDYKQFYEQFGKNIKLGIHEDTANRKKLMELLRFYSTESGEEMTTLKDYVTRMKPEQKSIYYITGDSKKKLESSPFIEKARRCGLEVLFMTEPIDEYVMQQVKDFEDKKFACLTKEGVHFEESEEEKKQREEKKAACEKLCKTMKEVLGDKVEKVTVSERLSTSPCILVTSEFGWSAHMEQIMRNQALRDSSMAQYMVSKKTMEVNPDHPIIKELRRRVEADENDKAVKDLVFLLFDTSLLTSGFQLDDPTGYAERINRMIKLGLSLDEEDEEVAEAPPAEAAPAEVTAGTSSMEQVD

For `COC1=C2C[C@@H](C)C[C@H](OC)[C@H](O)[C@@H](C)/C=C(\C)[C@H](OC(N)=O)[C@@H](OC)/C=C\C=C(/C)C(=O)NC(=CC1=O)C2=O` [GA, geldanamycin, reference compound], the Kd in assay [1] was 1.8 ± 0.3 µM; in assay [6] it was 7.6 ± 0.2 µM. Moreover, the Cell viability entry in assay [2] was “Yes”. In addition, the IC50 in assay [3] is 0.19 µM; in [4], 9 µM. For the same compound, the inhibition at 50 µM in assay [4] (read-out: percentage inhibition of LbHsp90 ATPase activity) was 100%. In addition, in assay [5] (100 µM positive controls, protein stabilisation), the thermal shift (ΔTm) was greater than 2.0 °C. For the same compound, the “percentage inhibition of hHsp90β ATPase activity” value (“percentage inhibition” for short) in [7] was “fully inhibits enzyme activity”.

In the case of `N=C(N)Nc1nc(-c2ccccc2)c2ccccc2n1` [Glb08], the Cell viability entry in assay [2] is listed as “Yes”. Also, in assay [2], the reduced cell viability entry is “more than 60%”. The Kd is 17 ± 6 µM in [8], 13 ± 4 µM in [11], 29 ± 3 µM in [12] and 20 ± 5 µM in assay [13]. For the same compound, the concentration for half-maximal inhibition (IC50) came out at 75 ± 3 µM in assay [9], 43 ± 2 µM in assay [10] and 30 ± 1 µM in [4] (setting [14]). Besides, in assay [5], the Thermal shift entry was “positive outcomes and Yes”. For the same compound, in [7], the “percentage inhibition” value is “lower than 60%”.

Turning to `N=C(N)NN=Cc1cnn(Cc2ccccc2)c1` [Glb15], the Cell viability result in [2] is “Yes”. Besides, in [2], the reduced cell viability entry was “more than 60%”. Besides, the Kd is 13 ± 3 µM in assay [8], 14 ± 4 µM in [11], 12 ± 3 µM in assay [12] and 14 ± 6 µM in assay [13]. Further, the figures for the IC50 in assay [9], in assay [10] and in assay [4] (setting [14]) were greater than 200 µM, 71 ± 2 µM and 36 ± 1 µM, respectively. Besides, the Thermal shift entry in assay [5] is reported as “No”. Besides, the “percentage inhibition” value in assay [7] is recorded as “lower than 60%”.

Turning to `N=C(N)SCc1nc2ccccc2c(=O)n1-c1ccccc1` [Glb23], the Cell viability entry in assay [2] is listed as “Yes”. For the same compound, the reduced cell viability result in [2] is “more than 60%”. The results for the 50% inhibitory concentration (IC50) in [9], in assay [10] and in assay [4] (setting [14]) were 55 ± 1 µM, greater than 100 µM and 35 ± 1 µM, respectively. The Thermal shift entry in assay [5] is recorded as “No”. The “percentage inhibition” value in [7] is “lower than 60%”. In addition, the values for the Kd in assay [11], in assay [12] and in assay [13] were 26 ± 7 µM, 20 ± 30 µM and 21 ± 9 µM, respectively.

For `Cc1cc(CSC(=N)N)c2oc(-c3ccccc3)cc(=O)c2c1` [Glb25], the Cell viability entry in [2] is on record as “Yes”. Besides, the reduced cell viability result in assay [2] is “more than 60%”. Moreover, the Kd in assay [8] was found to be 12 ± 2 µM; in [11], 7 ± 3 µM; in assay [12], 14 ± 3 µM; in assay [13], 15 ± 9 µM. Moreover, the values for the IC50 in assay [9] and in assay [10] were 11 ± 1 µM and greater than 200 µM, respectively. Also, in [5], the Thermal shift entry is “positive outcomes and Yes”. In addition, the “percentage inhibition” value in [7] is “lower than 60%”.
